According to US10881678B2, “Cytotoxic agents for the treatment of cancer” (CytRx Corporation, priority 2013, dated 2021):
Entries after “also recorded” stand apart in the source; their conditions may differ.

How the values were obtained:
U87-luc glioma cells [1] = assay: Intracranial U87-luc glioblastoma xenograft in mice, Example 1 (bioluminescent imaging, survival); format: in vivo; settings: for difference in tumor growth between 8 days and 22 days within the group: aldoxorubicin p>0.05, doxorubicin p<0.05; for survival time compared with vehicle-treated mice (Kaplan-Meier): result in words, aldoxorubicin also vs doxorubicin-treated group
Description: Intracranial implantation of U87-luc glioma cells in mice: A U87MG subline, U87-luc with a luciferase reporter gene was used for establishing intracranial human glioblastoma tumors. Female BALB/c (nu/nu) mice, 6-8 weeks of age, were anesthetized with a ketamine/xylazine cocktail solution. Animals were secured in a Harvard Apparatus stereotaxic head frame, a 1 cm midline scalp incision was made, and 5×10^5 cells in 5 μL serum-free DMEM were injected into the left striatum (coordinates: 2.5 mm lateral and 0.5 mm posterior to the bregma) through a burr hole in the skull using a 10 μl Hamilton syringe to deliver tumor cells to a 3.5 mm intraparenchymal depth. The burr hole in the skull was sealed with bone wax and the incision closed using wound glue. Tumor growth was evaluated by bioluminescent imaging.
Aldoxorubicin treatment of mice: The study consisted of 8 vehicle-treated control mice (group C), 8 doxorubicin-treated mice (group D), and 8 aldoxorubicin-treated mice (group A). Treatment was initiated twelve days after intracranial implantation of glioblastoma multiforme (GBM) cells. Vehicle (10 mM sodium phosphate, 5% D-(+)-glucose, pH 6.4) or aldoxorubicin was administered intravenously for a total of six injections (i.e., 12, 19, 26, 42, 50, and 56, days after cell implantation). All the doses were ˜75% of the maximum tolerated dose (MTD) of 32 mg/kg/inj in mice except that the dose given after 50 days of cell implantation was 50% of the MTD. Doxorubicin was administered intravenously for a total of two injections (i.e., 12 and 19 days after cell implantation) with ˜75% of the MTD of 8 mg/kg/inj. Both the drugs and the vehicle were administered using an injection volume of 0.15 ml.
In vivo imaging of intracranial tumors: Intracranial tumor growth was quantified by bioluminescent imaging using an in vivo imaging system (Xenogen, Palo Alto, Calif.). All mice were given an IP injection of 100 μl of 30 mg/ml D-luciferin (PerkinElmer) suspended in DPBS 10 minutes before imaging to provide a substrate for the luciferase enzyme. Prior to imaging, mice were anesthetized with inhalation of isoflurane gas. Images were captured using the Xenogen Ivis 200 imaging system and quantified with Living Image 4.1 software from Xenogen for a region of interest that encompassed the head of the mouse. Image intensities were expressed as photons/sec/cm^2/sr.
Statistical Analysis: The log-rank test was used to create Kaplan-Meier survival curves to compare survival between control and drug-treated mice using the Statistical Analysis Software of SAS Institute, Inc., Cary, N.C. Differences between groups were assessed using the unpaired Student's t test. AR values are shown as the mean±standard deviation. A p value≤0.05 was considered statistically significant.

U87-luc glioma cells [2] = assay: Intracranial U87-luc glioblastoma xenograft in mice, Example 2 (bioluminescent imaging, survival); format: in vivo
Description: Female mice (6-8 weeks of age) were implanted intracranially with U87-luc subline with luciferase reporter gene to establish human glioblastoma tumors. Tumor growth was evaluated by bioluminescent imaging using D-luciferin substrate. 8 mice were treated with aldoxorubicin and 8 were treated with phosphate buffer saline (vehicle). Treatment started 9 days after implantation of the GBM cells. Aldoxorubicin or vehicle was administered i.v. once a week for three weeks (9, 16, and 23 days after cell implantation). The first two doses of aldoxorubicin were 75% and the third dose was 50% of the MTD of 32 mg/kg/injection in mice.

[3] = Plasma and tissue distribution by HPLC in intracranial tumor-bearing mice; format: in vivo
Description: (§1) HPLC System and Conditions: An Agilent 1100 Series HPLC System (Wilmington, Del., USA) having a scanning fluorescent detector with excitation and emission wavelengths set at 480 and 560 nm, respectively, was used. Agilent Chemstation software was used for data acquisition. Separation was achieved on a Waters Spherisorb ODS2 column (4 mm×250 mm, 5 μm) fitted with a guard cartridge (BDS-Hypersil-C18, 5 μM). Elution was performed with mobile phase containing 65% monosodium phosphate, pH 2.2, and 35% acetonitrile. A constant flow rate of 1.25 ml/min was used for the separation. The column was set to 28° C. and the injection volume was 25 μl.
Sample preparation: Aldoxorubicin, 24 mg/kg/inj (75% of the MTD), was administered in intracranial GBM tumor-bearing mice through tail vein injection, and after 4, 8, 16, and 24 h after injection, mice (3 animals at each time point) were euthanized by CO2 gas. Blood samples were collected by heart puncture in heparinized tubes, and centrifuged for plasma separation. Immediately after blood sampling, organs (brain, heart, kidney liver and lung) were surgically removed. The plasma and tissues were stored at −80° C. until analysis.
Frozen samples were thawed at room temperature and homogenized in sterile saline using a PowerGen Model 125 homogenizer (Fisher Scientific) to obtain final tissue concentrations (w/v) of 150 mg/ml for the liver and brain; 125 mg/ml for the lung, heart and muscle; and 100 mg/ml for kidney. Perchloric acid (35%, v/v) was added to a 20 μl aliquot of plasma or tissue samples followed by 25 μl of mobile phase. The samples were vortexed followed by centrifugation at 10,000×g for 10 min. and 25 μl of the supernatant was applied to the HPLC column.

[4] = Aldoxorubicin retention in brain tumors and surrounding brain tissue by HPLC; format: in vivo, mice; settings: i.v. 24 mg/kg, 6 and 24 h after injection
Description: as §1, with “The HPLC system used was an” for “An”, “Series” for “Series HPLC System”, “equipped with” for “having”, “respectively.” for “respectively, was used.”, “comprised of” for “containing”, “65% 50 mM” for “65%”
Sample preparation: For quantification of aldoxorubicin in brain tissue and brain tumors, mice were euthanized by CO2 inhalation 6 and 24 h after aldoxorubicin injection (24 mg/kg/inj), brains were harvested and tumors were resected. The harvested tissues were stored at −80° C. until analysis.
Frozen samples were thawed at room temperature and homogenized in sterile saline using a PowerGen Model 125 homogenizer (Fisher Scientific) to obtain final tissue concentrations (w/v) of 150 mg/ml. Perchloric acid (35%, v/v) was then added to a […] aliquot followed by 25 μl of mobile phase. […] In the tissue samples analyzed, aldoxorubicin eluted with the retention time of doxorubicin.

[5] = Aldoxorubicin/doxorubicin detection in brain tumors by stereomicroscope epifluorescence; format: in vivo, mice; settings: 24 h following the last injection; epifluorescence of whole brains
Description: Aldoxorubicin/doxorubicin detection in brain tumors: Tumor-bearing mice were given intravenous injections of aldoxorubicin or doxorubicin as described above in Example 1. Mice were euthanized 24 h following the last injection. Brains were harvested and imaged using an MVX10 stereomicroscope (Olympus of America) equipped for brightfield and epifluorescence with filters encompassing doxorubicin-specific wavelengths to visualize drug accumulation.

[6] = Maximum tolerated dose in mice; format: in vivo; settings: intravenous
[7] = Drug detection in cryosections of brain tissues of tumor-bearing mice (immunohistochemistry, confocal); settings: drug fluorescence
Description: Immunohistochemistry: For histologic analysis, brain tissues from control and drug-treated tumor-bearing mice were harvested, snap frozen in optimal cutting temperature (OCT) compound and stored at −80° C. Cryostat sections were placed on slides and fixed in zinc-buffered formalin. Slides were blocked with 5% goat serum in 1% BSA followed by overnight incubation with primary antibodies against CD31 (102402, Biolegend, San Diego, Calif.), Ki-67 (ab156956, Abcam, Cambridge, Mass.), Vimentin (ab92547, Abcam), cleaved-Caspase-3 (CP229B, Biocare Medical), and GFAP (NB300-141, Novus Biologicals, Littleton, Colo.). Slides were then incubated with primary antibody source-specific secondary antibodies conjugated to Alexa Fluor 488 or 635 and DAN as a nuclear counterstain. The detection fluorophores used were limited to those around the inherent fluorescence spectra of doxorubicin (λex=480 nm, λem=550-590 nm) (22876313) to avoid bleed-through and enable co-detection of the drug with respect to certain antigens. Epifluorescence photomicrographs were captured at 100× and 400× magnification using an FV1000 confocal microscope (Olympus of America, Center Valley, Pa.) equipped with multi-Argon, 405, 559, and 635 diodes. Quantitative analysis was performed with Slidebook software (Intelligent Imaging Innovations, Denver, Colo.).

[8] = literature; cited from earlier work
[9] = molecular target: P-glycoprotein efflux pumps (Homo sapiens, UniProt P08183); settings: literature; cited from earlier work
P-glycoprotein efflux pumps, sequence (P08183 whole entry): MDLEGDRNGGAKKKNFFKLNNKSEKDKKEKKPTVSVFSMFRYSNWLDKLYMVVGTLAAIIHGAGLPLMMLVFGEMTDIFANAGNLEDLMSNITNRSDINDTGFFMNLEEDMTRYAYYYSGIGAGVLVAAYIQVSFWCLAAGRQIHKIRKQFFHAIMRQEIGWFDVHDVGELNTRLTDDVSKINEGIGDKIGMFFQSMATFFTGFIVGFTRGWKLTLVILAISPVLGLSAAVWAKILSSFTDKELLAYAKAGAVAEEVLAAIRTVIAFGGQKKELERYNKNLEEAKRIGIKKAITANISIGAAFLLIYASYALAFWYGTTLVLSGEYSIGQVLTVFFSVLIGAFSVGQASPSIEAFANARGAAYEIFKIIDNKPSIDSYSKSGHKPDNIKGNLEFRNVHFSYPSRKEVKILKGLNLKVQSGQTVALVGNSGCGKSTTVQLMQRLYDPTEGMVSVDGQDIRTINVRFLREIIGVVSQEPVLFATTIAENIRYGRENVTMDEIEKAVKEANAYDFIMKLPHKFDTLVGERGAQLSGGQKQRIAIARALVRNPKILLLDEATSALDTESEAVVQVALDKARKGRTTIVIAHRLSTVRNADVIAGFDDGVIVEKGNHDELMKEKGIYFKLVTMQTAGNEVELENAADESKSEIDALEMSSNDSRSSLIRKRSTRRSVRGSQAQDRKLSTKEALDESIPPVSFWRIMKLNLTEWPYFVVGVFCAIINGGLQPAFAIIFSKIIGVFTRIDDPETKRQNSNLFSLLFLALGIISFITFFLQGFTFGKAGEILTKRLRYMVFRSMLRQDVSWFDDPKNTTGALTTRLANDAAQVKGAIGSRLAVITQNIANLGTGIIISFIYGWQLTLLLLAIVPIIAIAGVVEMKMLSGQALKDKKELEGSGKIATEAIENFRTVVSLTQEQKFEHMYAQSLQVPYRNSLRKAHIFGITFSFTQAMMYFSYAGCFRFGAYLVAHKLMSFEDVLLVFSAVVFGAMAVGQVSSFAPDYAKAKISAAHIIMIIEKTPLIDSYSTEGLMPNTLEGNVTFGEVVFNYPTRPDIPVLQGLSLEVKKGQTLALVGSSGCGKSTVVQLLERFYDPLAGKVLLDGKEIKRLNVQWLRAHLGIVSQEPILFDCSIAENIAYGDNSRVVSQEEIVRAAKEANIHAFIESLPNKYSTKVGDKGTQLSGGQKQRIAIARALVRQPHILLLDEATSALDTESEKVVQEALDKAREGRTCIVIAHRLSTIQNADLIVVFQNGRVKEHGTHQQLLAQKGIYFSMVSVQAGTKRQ

[10] = tested on: glioblastoma growing in the brain; settings: literature; cited from earlier work
Glioblastoma cell lines = settings: literature; cited from earlier work
[11] = 22 days after implantation, aldoxorubicin treatment for 2 weeks, radiance
[12] = administered intravenously, intracranial human GBM tumors
[13] = i.v. 24 mg/kg (~75% of the MTD)

For `COc1cccc2c1C(=O)c1c(O)c3c(c(O)c1C2=O)C[C@@](O)(/C(CO)=N/NC(=O)CCCCCN1C(=O)C=CC1=O)C[C@@H]3OC1CC(N)C(O)C(C)O1.Cl` (some centres unmarked) [aldoxorubicin], the “average tumor size relative to the control group” value (U87-luc glioma cells [1]; [11]) was 28%, the “average tumor size relative to the doxorubicin treatment group” value (U87-luc glioma cells [1]; [11]) was 40% and the “survival of animals 34 days after tumor implantation” value (U87-luc glioma cells [1]; 34 days, group of 8 mice) was “remained alive”. For the same compound, the overall antitumor result (U87-luc glioma cells [1]; [12]) was “induces tumor regression and significantly increases survival”, the animals still alive (U87-luc glioma cells [1]; after 41 days) was “seven of the eight” and the “difference in tumor growth between 8 days and 22 days within the group” value (U87-luc glioma cells [1]; radiance) was “no relative difference in tumor growth”. The “survival time compared with vehicle-treated mice (Kaplan-Meier)” value (U87-luc glioma cells [1]) was “increased survival times; also recorded: survived a longer time”, the “mice with tumor regrowth” value (U87-luc glioma cells [2]; Day 29) was 2 and the mice dead (U87-luc glioma cells [2]; Day 29, group of 8 mice) was 1. The “other mice with tumor regrown” value (U87-luc glioma cells [2]; Day 33) was 4, the mice dead (U87-luc glioma cells [2]; Day 33, group of 8 mice) was 3 and the overall antitumor result (U87-luc glioma cells [2]; [12]) was “induces tumor regression and increases survival”. For the same compound, the “mice with detectable tumor” value (U87-luc glioma cells [2]; at 21 days, group of 8 mice) was 1, the “survival compared with vehicle (Kaplan-Meier)” value (U87-luc glioma cells [2]; result in words) was “survived longer” and the “levels in the brain over time” value ([3]; from 4 h to 24 h, total brain tissue of tumor-bearing mice) was “remained almost same”. The “plasma concentration relative to that in the brain” value [3, 13] was “more than 200 fold”, the “plasma concentration relative to the mean concentration in liver, heart, lung and kidney” value [3, 13] was “more than 20 fold” and the “time of highest drug concentration” value ([3]; plasma and other organs except brain, i.v. 24 mg/kg (~75% of the MTD)) was 4 h. For the same compound, the “time to reach nearly 50% of its concentration” value ([3]; plasma and other tissues except the brain) was 20 h, the “retention in tumor tissues relative to surrounding brain tissues” value [4] was 3- to 4 fold and the “accumulation in glioblastoma tumors” value [5] was “accumulates in glioblastoma tumors”. For the same compound, the “maximum tolerated dose (MTD)” value [6] was 32 mg/kg/inj and the “accumulation in brain tumor and normal brain tissue” value [7] was “accumulates in the brain tumor but not in normal brain tissue”.

With `COc1cccc2c1C(=O)c1c(O)c3c(c(O)c1C2=O)C[C@@](O)(C(=O)CO)C[C@@H]3O[C@H]1C[C@H](N)[C@H](O)[C@H](C)O1` [doxorubicin, reference compound] the “time after tumor implantation within which all animals died” value (U87-luc glioma cells [1]; group of 8 mice) was no more than 34 days, the animals died (U87-luc glioma cells [1]; in 22 days, group of 8 mice) was 2 and the “difference in tumor growth between 8 days and 22 days within the group” value (U87-luc glioma cells [1]; radiance) was “a relative difference in tumor growth”. The “survival time compared with vehicle-treated mice (Kaplan-Meier)” value (U87-luc glioma cells [1]) was “no difference in the survival time; also recorded: no difference in the survival curves”, the “accumulation in glioblastoma tumors” value [5] was “not doxorubicin accumulates” and the “maximum tolerated dose (MTD)” value [6] was 8 mg/kg/inj. The “ability to cross the BBB” value [8] was “lacks the ability to cross the BBB”, the “free concentration in glioma tissues” value [8] was “below effective levels” and the “P-glycoprotein efflux pump substrate” value [9] was “substrate of the P-glycoprotein efflux pumps”. The “effect on glioblastoma growing in the brain” value [10] was “no effect”, the “effect on glioblastoma cell lines” value (Glioblastoma cell lines) was “driven to apoptosis following growth arrest” and the “accumulation in brain tumor and normal brain tissue” value [7] was “not found in any appreciable amount in either the tumor or normal brain”.
